Ends that are not written are not given here. MBP = maltose-binding protein (N-terminal fusion)

Here are results for 6 compounds from paper PMC3483115 (The Journal of General Physiology, 2012).

Experiment [1] has as its system TRPV1 K155A. It is filed as cell-based, rat. As to conditions: repeated 1 µM capsaicin, whole cell, extracellular Ca^2+.
Experiment [2] has as its system TRPV1 K155A. As to conditions: ref Lishko et al., 2007; cited from earlier work.
Experiment [3] concerns the target T1, Ca^2+–CaM (Homo sapiens, UniProt P0DP23). The conditions noted are these: ref Lishko et al., 2007; cited from earlier work.
For experiment [4], the target named is T1, Ca^2+–CaM. Put plainly: CaM-agarose pulldown of MBP-fused TRPV1-CT35 peptides. As to conditions: CaM-agarose pulldown (Fig. S2), pH 7.5, 1 mM CaCl2 or EGTA, 4°C, 1 h. It is filed as binding.
In experiment [5] the target is T1, Ca^2+–CaM. Put plainly: SEC-based comparison of Ca^2+–CaM affinity, TRPV1-ARD vs. TRPV1-CT. The conditions noted are these: suggested by SEC; affinity could not be measured. It is filed as binding.
A further experiment relates to CaM. Put plainly: SEC of TRPV1-CT peptides mixed with CaM. It is filed as binding. As to conditions: Superdex 75, in the presence of Ca^2+, data shown for TRPV1-CT44.
For the next experiment, the system named is TRPV1. The conditions noted are these: ref Liu et al., 2005, Lishko et al., 2007, Lukacs et al.; cited from earlier work.

Regarding `COc1cc(CNC(=O)CCCC/C=C/C(C)C)ccc1O` [capsaicin], the “tachyphylaxis and activation kinetics, K155A TRPV1” value with TRPV1 K155A [1] is “little tachyphylaxis and slower activation kinetics”. Moreover, the “capsaicin sensitivity of K155A TRPV1” value in the experiment with TRPV1 K155A [2] is “normal capsaicin sensitivity”.

“K155A: TRPV1 with mutation K155A in the TRPV1-ARD”: the “Ca^2+–CaM binding to TRPV1-ARD with mutation” value in the experiment with Ca^2+–CaM [3] was “abolish Ca^2+–CaM binding to TRPV1-ARD”.

Consider “L796P ({MBP}-EGVKRTLSFSLRSGRVSGRNWKNFALVPLPRDAST)”, for which, in the experiment with Ca^2+–CaM [4], the “Ca^2+–CaM binding of L796P MBP-TRPV1-CT35 (pulldown)” value is given as “did not significantly disrupt binding of TRPV1-CT35 to Ca^2+–CaM”.

On to “TRPV1-ARD: N-terminal ankyrin repeat domain of TRPV1 (rat or chicken)”, for which, in the experiment with Ca^2+–CaM [5], the “affinity of TRPV1-ARD for Ca^2+–CaM relative to TRPV1-CT” value is reported as “the affinity is likely significantly lower than that of the TRPV1-CT”.

“TRPV1-CT35: 35-residue CaM-binding peptide from the TRPV1-CT (residues 767–801) (EGVKRTLSFSLRSGRVSGRNWKNFALVPLLRDAST; left off: MBP, N-terminal, cleaved)”: the “shift in elution volume with CaM” value in the experiment with CaM was “undergo a large shift in elution volume when mixed with CaM in the presence of Ca^2+, confirming that a complex is formed”.

Turning to “phosphatidylinositol-4,5-bisphosphate [PIP2]”, in the experiment with TRPV1, the “effect of PIP2 on TRPV1” value is listed as “can also potentiate TRPV1”.
